In patent US11026880B2, “Extract of passionflower seeds and cosmetic, pharmaceutical, dermatological and nutraceutical compositions comprising same” (Laboratoires Expanscience, priority 2012, dated 2021):

Tests used:
[1] = test system: Normal human keratinocytes; test: Production of reactive oxygen species in keratinocytes under H2O2 stress (DCFH-DA probe); type: cell-based; details: for Amount of ROS DFU/OD540 (mean ± standard deviation): 24 hours preincubation, 100 μM H2O2 20 minutes
Experimental: The antioxidant action of passionflower hydrolysate on oxidative stress generated by hydrogen peroxide (H2O2) in keratinocytes was evaluated by measuring the amount of reactive oxygen species produced. This test is based on the use of a probe (DCFH-DA) that breaks down and fluoresces in contact with reactive oxygen species (ROS). The fluorescence emitted will be thus proportional to the amount of ROS produced by the cell in response to oxidative stress. Normal human keratinocytes were preincubated for 24 hours in the presence of passionflower hydrolysate or the reference molecules: 10 μM quercetin or 500 μM vitamin C. The cells were then incubated for 1 hour in the presence of the probe DCFH-DA and then treated with 100 μM H2O2 for 20 minutes, still in the presence of passionflower hydrolysate or the reference molecules. The ROS assay was carried out by measuring the fluorescence emitted. The results were normalized to the number of living cells determined using a neutral red uptake assay carried out in parallel. The amount of ROS emitted is thus expressed as fluorescence density (DFU)/optical density resulting from the neutral red assay (OD540). The results were statistically analyzed by one-way analysis of variance followed by Tukey's test.

Jurkat cells = test: Lipid peroxidation in UV-irradiated Jurkat cells (C11-fluorine probe, flow cytometry); type: cell-based; details: UV + 50 μM BHT
Experimental: The protective effect of passionflower hydrolysate on lipid peroxidation was evaluated in UV-irradiated Jurkat cells.
Jurkat cells were incubated for 45 minutes in the presence or absence of passionflower hydrolysate or the reference (50 μM BHT) and in the presence of the fluorescent probe specific for the measurement of lipid peroxides (C11-fluorine). This fluorescent probe is a lipid analog that integrates into membranes and whose fluorescence intensity decreases when peroxidized. The cells were then irradiated by UV (UVB 240 mJ/cm^2+UVA 3.5 J/cm^2) in the presence of passionflower hydrolysate or the reference. At the conclusion of the irradiation, the cells were incubated for 30 minutes at 37° C. prior to being analyzed by flow cytometry. The fluorescence intensity results obtained were expressed as a % of the irradiated control.

Structure (SMILES): O=c1c(O)c(-c2ccc(O)c(O)c2)oc2cc(O)cc(O)c12 [Quercetin, quercetin]
- Amount of ROS DFU/OD540 (mean ± standard deviation) ([1]; 10 μM quercetin): 84549.570 ± 9476.724 DFU/OD540
- inhibition at 10 µM ([1]; Homo sapiens, Keratinocyte, 10 μM quercetin, 100 μM H2O2, read-out: Inhibition relative to the H2O2 control (ROS)): 71%

Structure (SMILES): Cc1cc(C(C)(C)C)c(O)c(C(C)(C)C)c1 [BHT]
- Protection (%) against lipid peroxidation (Jurkat cells): 31%
- Amount of lipid peroxides (% of the irradiated control) (Jurkat cells; UVB 240 mJ/cm^2+UVA 3.5 J/cm^2): 83 % of the irradiated control

Structure (SMILES): O=C1O[C@H]([C@@H](O)CO)C(O)=C1O [Vitamin C, vitamin C]
- Amount of ROS DFU/OD540 (mean ± standard deviation) ([1]; 500 μM vitamin C): 35997.820 ± 10389.067 DFU/OD540
- inhibition at 500 µM ([1]; Homo sapiens, Keratinocyte, 500 μM vitamin C, 100 μM H2O2, read-out: Inhibition relative to the H2O2 control (ROS)): 87%
